Results from patent US9113629B2, “4-amino-6-(4-substituted-phenyl)-picolinates and 6-amino-2-(4-substituted-phenyl)-pyrimidine-4-carboxylates and their use as herbicides” (DOW AGROSCIENCES LLC, priority 2013, dated 2015).

What was measured:
[1] = Post-emergent Test III, herbicidal activity in wheat and barley; assay type: in vivo, Lolium multiflorum, Lolium rigidum; settings: Lolium multiflorum, post-emergence, 504 h, Table 9, post-emergent, 21 d, read-out: Visual Growth Reduction (%) 21 Days After Application LOLSS; for pest or weed control at 35 g/ha: 35 g ai/ha; for pest or weed control at 70 g/ha: 70 g ai/ha; for pest or weed control at 140 g/ha: 140 g ai/ha
Method: (§1) Post-emergent Test III. Seeds of the desired test plant species were planted in Sun Gro MetroMix® 306 planting mixture, which typically has a pH of 6.0 to 6.8 and an organic matter content of about 30 percent, in plastic pots with a surface area of 103.2 square centimeters (cm^2). When required to ensure good germination and healthy plants, a fungicide treatment and/or other chemical or physical treatment was applied. The plants were grown for 7-36 days (d) in a greenhouse with an approximate 14 hour (h) photoperiod which was maintained at about 18° C. during the day and 17° C. during the night. Nutrients and water were added on a regular basis and supplemental lighting was provided with overhead metal halide 1000-Watt lamps as necessary. The plants were employed for testing when they reached the second or third true leaf stage.
(§2) A weighed amount, determined by the highest rate to be tested, of each test compound was placed in a 25 mL glass vial and was dissolved in 4 mL of a 97:3 v/v mixture of acetone and DMSO to obtain concentrated stock solutions. […] The concentrated stock solutions obtained were diluted with 20 mL of an aqueous mixture containing acetone, water, isopropyl alcohol, DMSO, Agri-Dex crop oil concentrate, and X-77 surfactant in a 48:39:10:1.5:1.5:0.02 v/v ratio to obtain spray solutions containing the highest application rates. Additional application rates were obtained by serial dilution of 12 mL of the high rate solution into a solution containing 2 mL of 97:3 v/v mixture of acetone and DMSO and 10 mL of an aqueous mixture containing acetone, water, isopropyl alcohol, DMSO, Agri-Dex crop oil concentrate, and X-77 surfactant in a 48:39:10:1.5:1.5:0.02 v/v ratio to obtain ½×, ¼×, ⅛× and 1/16× rates of the high rate. Compound requirements are based upon a 12 mL application volume at a rate of 187 liters per hectare (L/ha). Formulated compounds were applied to the plant material with an overhead Mandel track sprayer equipped with 8002E nozzles calibrated to deliver 187 L/ha over an application area of 0.503 square meters at a spray height of 18 inches (43 cm) above the average plant canopy height. Control plants were sprayed in the same manner with the solvent blank.
(§3) The treated plants and control plants were placed in a greenhouse as described above and watered by subirrigation to prevent wash-off of the test compounds. After 21 d, the condition of the test plants as compared with that of the untreated plants was determined visually and scored on a scale of 0 to 100 percent where 0 corresponds to no injury and 100 corresponds to complete kill.
(§4) By applying the well-accepted probit analysis as described by J. Berkson in Journal of the American Statistical Society, 48, 565 (1953) and by D. Finney in “Probit Analysis” Cambridge University Press (1952), herbicidal injury of a specific compound at various rates can be used to calculate GR20, GR50, GR80 and GR90 values, which are defined as growth reduction factors that correspond to the effective dose of herbicide required to provide plant growth reduction (GR) of 20 percent, 50 percent, 80 percent and 90 percent, respectively. Probit analysis was applied to data collected from multiple dose rates of individual compounds utilizing the procedures explained in the following examples. The analysis of those dose rates is captured in the following tables.

[2] = test system: APESV: bentgrass (Apera spica-venti); experiment: as above; assay type: in vivo; settings: Table 9, 21 d; for pest or weed control at 35 g/ha / pest or weed control at 70 g/ha / pest or weed control at 140 g/ha: Apera spica-venti, post-emergence, 504 h, post-emergent, read-out: Visual Growth Reduction (%) 21 Days After Application APESV; for pest or weed control at 35 g/ha: 35 g ai/ha; for pest or weed control at 70 g/ha: 70 g ai/ha; for pest or weed control at 140 g/ha: 140 g ai/ha; for GR50 APESV: dose for 50 percent growth reduction; for GR50 APESV / GR80 APESV: probit analysis; for GR80 APESV: dose for 80 percent growth reduction
Method: as §1, §2, §3, §4

[3] = test system: HORSS: barley, including spring and winter (Hordeum vulgare); experiment: as above; assay type: in vivo; settings: Table 9, 21 d; for pest or weed control at 35 g/ha / pest or weed control at 70 g/ha / pest or weed control at 140 g/ha: Hordeum vulgare, post-emergence, 504 h, post-emergent, read-out: Visual Growth Reduction (%) 21 Days After Application HORSS; for pest or weed control at 35 g/ha: 35 g ai/ha; for pest or weed control at 70 g/ha: 70 g ai/ha; for pest or weed control at 140 g/ha: 140 g ai/ha; for GR20 HORSS: dose for 20 percent growth reduction, probit analysis
Method: as §1, §2, §3, §4

[4] = test system: KCHSC: kochia (Kochia scoparia); experiment: as above; assay type: in vivo; settings: Table 9, 21 d; for pest or weed control at 35 g/ha / pest or weed control at 70 g/ha / pest or weed control at 140 g/ha: Bassia scoparia, post-emergence, 504 h, post-emergent, read-out: Visual Growth Reduction (%) 21 Days After Application KCHSC; for pest or weed control at 35 g/ha: 35 g ai/ha; for pest or weed control at 70 g/ha: 70 g ai/ha; for pest or weed control at 140 g/ha: 140 g ai/ha; for GR50 KCHSC: dose for 50 percent growth reduction; for GR50 KCHSC / GR80 KCHSC: probit analysis; for GR80 KCHSC: dose for 80 percent growth reduction
Method: as §1, §2, §3, §4

[5] = test system: LOLSS: ryegrass including, Italian ryegrass (Lolium multiflorum), rigid ryegrass (Lolium rigidum), annual ryegrass (Lolium multiflorum subsp. Gaudini); experiment: as above; assay type: in vivo; settings: Table 9, probit analysis, 21 d; for GR50 LOLSS: dose for 50 percent growth reduction; for GR80 LOLSS: dose for 80 percent growth reduction
Method: as §1, §2, §3, §4

[6] = test system: SETVI: green foxtail (Setaria viridis); experiment: as above; assay type: in vivo; settings: Table 9, 21 d; for pest or weed control at 35 g/ha / pest or weed control at 70 g/ha / pest or weed control at 140 g/ha: Setaria viridis, post-emergence, 504 h, post-emergent, read-out: Visual Growth Reduction (%) 21 Days After Application SETVI; for pest or weed control at 35 g/ha: 35 g ai/ha; for pest or weed control at 70 g/ha: 70 g ai/ha; for pest or weed control at 140 g/ha: 140 g ai/ha; for GR50 SETVI: dose for 50 percent growth reduction; for GR50 SETVI / GR80 SETVI: probit analysis; for GR80 SETVI: dose for 80 percent growth reduction
Method: as §1, §2, §3, §4

[7] = test system: TRZSS: wheat, including spring and winter (Triticum aestivum); experiment: as above; assay type: in vivo; settings: Table 9, 21 d; for GR20 TRZSS: dose for 20 percent growth reduction, probit analysis; for pest or weed control at 35 g/ha / pest or weed control at 70 g/ha / pest or weed control at 140 g/ha: Triticum aestivum, post-emergence, 504 h, post-emergent, read-out: Visual Growth Reduction (%) 21 Days After Application TRZSS; for pest or weed control at 35 g/ha: 35 g ai/ha; for pest or weed control at 70 g/ha: 70 g ai/ha; for pest or weed control at 140 g/ha: 140 g ai/ha
Method: as §1, §2, §3, §4

SMILES | pest or weed control at 35 g/ha [1] | pest or weed control at 70 g/ha [1] | pest or weed control at 35 g/ha [2] | pest or weed control at 70 g/ha [2] | GR50 APESV [2] | GR80 APESV [2] | pest or weed control at 35 g/ha [3] | pest or weed control at 70 g/ha [3] | GR20 HORSS [3] | pest or weed control at 35 g/ha [4] | pest or weed control at 70 g/ha [4] | GR50 KCHSC [4] | GR80 KCHSC [4] | GR50 LOLSS [5] | GR80 LOLSS [5] | pest or weed control at 35 g/ha [6] | pest or weed control at 70 g/ha [6] | GR50 SETVI [6] | GR80 SETVI [6] | GR20 TRZSS [7] | also measured
COC(=O)c1nc(-c2ccc(I)cc2)c(Cl)c(N)c1Cl [Compound 96] | 45 to 59% | 60 to 74% | 30 to 44% | 30 to 44% | 125 g ai/ha | >140 g ai/ha | 85 to 94% | 95 to 100% | 1 g ai/ha | 0 to 29% | 60 to 74% | 79 g ai/ha | >140 g ai/ha | 48 g ai/ha | >140 g ai/ha | 0 to 29% | 60 to 74% | 72 g ai/ha | 128 g ai/ha | 1 g ai/ha | pest or weed control at 140 g/ha [1]: 60 to 74%; pest or weed control at 140 g/ha [2]: 45 to 59%; pest or weed control at 140 g/ha [3]: 95 to 100%; pest or weed control at 140 g/ha [4]: 60 to 74%; pest or weed control at 140 g/ha [6]: 75 to 84%; pest or weed control at 35 g/ha [7]: 85 to 94%; pest or weed control at 70 g/ha [7]: 85 to 94%; pest or weed control at 140 g/ha [7]: 95 to 100%
Nc1c(Cl)c(C(=O)O)nc(-c2ccc(I)cc2)c1Cl [Compound 173] | 30 to 44% | 45 to 59% | 60 to 74% | 75 to 84% | 27 g ai/ha | 59 g ai/ha | 85 to 94% | 95 to 100% | 1 g ai/ha | 30 to 44% | 45 to 59% | 60 g ai/ha | 131 g ai/ha | 119 g ai/ha | >140 g ai/ha | 30 to 44% | 45 to 59% | 54 g ai/ha | 104 g ai/ha | 1 g ai/ha | pest or weed control at 35 g/ha [7]: 75 to 84%; pest or weed control at 70 g/ha [7]: 85 to 94%
Nc1c(Cl)c(C(=O)O)nc(-c2ccc(Br)cc2)c1Cl [Compound 125] | 0 to 29% | 0 to 29% | 75 to 84% | 85 to 94% | 10 g ai/ha | 41 g ai/ha | 85 to 94% | 95 to 100% | 1 g ai/ha | 60 to 74% | 85 to 94% | 8 g ai/ha | 34 g ai/ha | >140 g ai/ha | >140 g ai/ha | 85 to 94% | 85 to 94% | 2 g ai/ha | 16 g ai/ha | 1 g ai/ha | pest or weed control at 140 g/ha [1]: 45 to 59%; pest or weed control at 140 g/ha [2]: 95 to 100%; pest or weed control at 140 g/ha [3]: 95 to 100%; pest or weed control at 140 g/ha [4]: 95 to 100%; pest or weed control at 140 g/ha [6]: 85 to 94%; pest or weed control at 35 g/ha [7]: 75 to 84%; pest or weed control at 70 g/ha [7]: 75 to 84%; pest or weed control at 140 g/ha [7]: 85 to 94%
Nc1cc(-c2ccc(Br)cc2F)nc(C(=O)O)c1Cl [Compound 74] | 30 to 44% | 45 to 59% | 85 to 94% | 85 to 94% | 10 g ai/ha | 25 g ai/ha | 85 to 94% | 85 to 94% | 1 g ai/ha | 85 to 94% | 95 to 100% | 3 g ai/ha | 11 g ai/ha | >140 g ai/ha | >140 g ai/ha | 75 to 84% | 85 to 94% | 3 g ai/ha | 49 g ai/ha | 1 g ai/ha | pest or weed control at 35 g/ha [7]: 75 to 84%; pest or weed control at 70 g/ha [7]: 75 to 84%
